Values joined by “and” are separate entries in the source; they are usually repeats but may differ in a detail not shown here. Equal values may be shown once. Read-outs that look alike come from different tables or passages of the source.
What was measured:
Orgaran = test: Reversal of anti-Factor Xa activity in vitro (Stachrom Heparin chromogenic assay), Orgaran; format: biochemical, human; conditions: for Percent Reversal of anti-Factor Xa Activity, Orgaran: 0.5 U/ml anti-Factor Xa activity
Experimental: (§1) Solutions of Lovenox, Orgaran, or unfractionated heparin (Sigma) were prepared in 0.32% sodium citrate or in normal human plasma to contain 0.5 U/ml anti-FXa activity. Calibrations were made against the standards provided by the Stachrom Heparin (Diagnostica Stago) assay kit. The heparin/ATIII complex was allowed to form at 37° C. for 2 minutes, peptide was added, the mixture was incubated for an additional 1-5 minutes, and then Factor Xa was added, and finally the color reagent, for one minute, and the absorbance was read at 405 nm. The increase in absorbance from the heparinized control to the test sample was divided by the difference in A405 between the heparinized control and the control without heparin to obtain the % reversal.

Lovenox = test: Reversal of anti-Factor Xa activity in vitro (Stachrom Heparin chromogenic assay), Lovenox; format: biochemical, human; conditions: for Percent Reversal of anti-Factor Xa Activity, Lovenox: 0.5 U/ml anti-Factor Xa activity
Experimental: as §1

unfractionated heparin [1] = test: Reversal of anti-Factor Xa activity in vitro (Stachrom Heparin chromogenic assay), unfractionated heparin; format: biochemical, human; conditions: for Percent Reversal of anti-Factor Xa Activity, Heparin (unfractionated): 0.5 U/ml anti-Factor Xa activity
Experimental: as §1

[2] = Affinity coelectrophoresis (ACE) of radiolabeled heparin through peptides; format: binding, pig; conditions: for heparin-binding affinity in words: ACE, low Mr heparin
Excerpt: Preparation of Radiolabeled Heparin—Whole heparin from pig intestinal mucosa (Sigma) was tyramine end-labeled and radiolabeled with Na^125I (Amersham, Pharmacia Biotech, Inc., Piscataway, N.J.) to an average specific activity ≅1.0×10^7 CPM/μg as described^59. Radiolabeled heparin was fractionated on Sephadex G-100 (Bio-Rad Laboratories, Hercules, Calif.) and the final ≅12% of material to elute was retained as the low Mr material of ≦6,000 (Jordan, R., D. Beeler, and R. Rosenberg, J Biol Chem, 254:2902-2913, 1979; Laurent, T. C., et al., Biochem J, 175:691-701, 1978).
(§2) Briefly, peptides were dissolved in 1×ACE running buffer, 50 mM sodium 3-(N-morpholino)-2-hydroxypropanesulfonate (MOPSO, Sigma)/125 mM sodium acetate, pH 7.0, and serially diluted in running buffer at 2× concentrations. Peptides were then mixed 1:1 with 2% agarose/1% CHAPS, 3-[(3-cholamidopropyl)dimethylammonio]-1-propanesulfonate, (Boehringer Mannheim, Indianapolis, Ind.), and loaded into wells of a 1% agarose gel. Radiolabeled heparin or HUVEC PGs were then loaded in a slot on the […] side of the gel, and electrophoresed through the peptide-containing wells, towards the cathode. Gels were dried and PG mobility was measured with a Phosphorimager (Molecular Dynamics, Sunnyvale, Calif.) by scanning each protein lane and determining the relative radioactivity content per. 88-μm pixel through the length of the lane. Retardation coefficient (R) measurements, binding isotherm curve fittings, and apparent Kd value determinations were calculated as detailed previously (Lee, M. K., and A. D. Lander, Proc Nat Acad Sci USA, 88:2768-2772, 1991; San Antonio, J. D., et al, Biochem, 32:47464755, 1993).
Some peptides were also analyzed by ACE for heparin-binding under reducing conditions. Thus, after serial peptide dilution, β-mercaptoethanol (β-ME) was added at 5% to each peptide sample, and these were mixed 1:1 with 2% agarose/1% CHAPS/5% β-ME, and added to the ACE gel sample wells as usual.

unfractionated heparin [3] = test: Reversal of anti-thrombin effects of unfractionated heparin in vitro (thrombin clotting time in plasma); format: biochemical, human; conditions: heparin 0.5 U/ml; thrombin standardized to clotting time 20-22 seconds
Experimental: Plasma was obtained from normal donors. Thrombin concentration (human alpha thrombin, Enzyme Research Laboratories, South Bend, Ind.) was standardized to produce a clotting time of 20-22 seconds. Heparin was added at 0.5 IU anti-thrombin activity/ml. The clotting time for heparin alone was approximately 3 minutes. To test the effects of the peptides in this system, one minute after addition of heparin to the plasma, the peptides were added in concentrations ranging from 1-200 μg/ml. After one minute, thrombin was added and the clotting time determined. The effects of the peptides were concentration dependent. The clotting time was restored to normal values in all samples at the dosages shown below in Table III. The ability of the peptides to neutralize heparin inhibition of thrombin clotting time was consistent with the binding affinities shown in Table I, and with the effectiveness against low molecular weight heparin anti-Factor Xa activity in Table II.

HUVEC PGs = test: ACE of HUVEC PGs/GAGs through peptide; format: binding, human
Experimental: as §2
Binding analysis of peptides to enzymatically or chemically degraded PGs (see below) was carried out by ACE as detailed, except that PG samples included 6 M urea to denature any residual enzymes.
Cell Culture—HUVEC were isolated as detailed elsewhere (Gimbrone, M. A., In Progress in Hematology and Thrombosis. Vol. III. B. S. Collen, editor. W B Saunders, Philadelphia. 1-28, 1976) and were used up to passage seven. Cells were cultured on 0.2% gelatin-coated tissue culture flasks in normal culture media composed of medium 199 (Gibco BRL, Gaithersburg, Md.), 10% fetal bovine serum (FBS, Mediatech Inc.), 80 μg/ml endothelial cell growth supplement isolated from bovine hypothalami as described (Maciag, T., et al., Proc Nat Acad Sci USA, 76 (11):5674-5678, 1979), 50 μg/ml heparin (porcine intestinal mucosa, grade 1A, Sigma) 1% penicillin-streptomycin, and 0.1% fungizone.
Radiolabeling and Isolation of Total HUVEC PGs and GAGs—Exponentially growing, subconfluent HUVEC were labeled with 35μCi/ml ^35S-Na2SO4 (ICN Pharmaceuticals, Costa Mesa, Calif.) in normal culture media minus heparin for 12 h. Culture media and cell layers were harvested separately. After removal of the media, cells were washed with 2.0 ml PBS plus Ca^2+-Mg^2′. Media and rinses were pooled and brought to 6 M urea, 10 mM EDTA, 1 mM phenymethylsulfonyl fluoride (PMSF), 5 mM N-ethylmaleimide (NEM), 50 mM 6-aminocaproic acid, 5 mM benzamidine, and 1 μg/ml pepstatin A. Samples were stirred for 15 min at room temperature, then centrifuged at 10,000 rpm for 30 min to remove insoluble materials.
To the cell layer was added 2.0 ml of extraction solution, 6M urea, 100 mM NaCl, 0.2% Triton X-100, 50 mM Tris-HCl, pH 7.0, and protease inhibitors as described above. Cells were scraped off the dishes, and the extracts were pooled and stirred for 5 min at room temperature, and then centrifuged as described above.
Samples were concentrated on DEAE columns (DEAE Bio-Gel A Agarose, Bio-Rad Laboratories) equilibrated with low salt buffer, 0.1 M NaCl, 6 M urea, and 50 mM Tris-HCl, pH 7.0. Columns were rinsed with 10 ml of low salt buffer; flow through was discarded. Bound PGs/GAGs were eluted with 3 ml of high salt buffer, 1.5 M NaCl, 6 M urea, and 50 mM Tris-HCl, pH 7.0. Eluted samples were dialyzed against distilled water, lyophilized and stored at −20° C. until binding analysis.
Enzymatic Digestions of PGs—The contributions of PG GAG chain components to peptide binding affinities were assessed by selective enzymatic degradation of GAG chains prior to ACE analysis. ^35S-Na2SO4 labeled HUVEC PGs were digested with chondroitinase ABC, or heparatinase I (Seikagaku America, Ijamsville, Md.). […]

| heparin-binding affinity in words [2] | Substance | Percent Reversal of anti-Factor Xa Activity, Orgaran (Orgaran; peptide 0.6 mg/ml in plasma) [%] | Percent Reversal of anti-Factor Xa Activity, Lovenox (Lovenox; peptide 0.6 mg/ml in plasma) [%] | Percent Reversal of anti-Factor Xa Activity, Heparin (unfractionated) (unfractionated heparin [1]; peptide 0.6 mg/ml in plasma) [%] | μg peptide/ml heparinized plasma needed to normalize thrombin time (unfractionated heparin [3]) | other results |
| --- | --- | --- | --- | --- | --- | --- |
|  | (ARRRAARA)3 [XBBBXXBX tandem repeat peptide] | 67.0 | 67.5 | 57.5 |  |  |
| weak | AKKARAAKKARA [(AKKARA)2, XBBXBX tandem repeat peptide] | 37.0 | 61.5 | 67.0 | >50 μg peptide/ml heparinized plasma |  |
|  | ARKKAAKAARKKPAKAARKKAAKA | 67.0 | 83.0 | 57.5 |  |  |
|  | YPTQRARYQWVRCNP | 5 | 0 | 90 | 100 μg peptide/ml heparinized plasma | effectiveness against Orgaran in vitro, in words (Orgaran; text summary of Table II): highly effective; effectiveness against Lovenox / low molecular weight heparin in vitro, in words (Lovenox; text summary of Table II): not against Lovenox; effectiveness against UFH / heparin in vitro, in words (unfractionated heparin [1]; text summary of Table II): highly effective |
|  | (AKAAKKRA)3 (AKAAKKRAAKAAKKRAAKAAKKRA; protein fragment) [XBBBXXBX tandem repeat peptide, reversed orientation] | 72.0 | 93.5 | 94.0 | >50 μg peptide/ml heparinized plasma |  |
| moderate | AKKARAAKKARAAKKARAAKKARA [(AKKARA)4, XBBXBX tandem repeat peptide] | 75 | 73 | 99 | 10 μg peptide/ml heparinized plasma |  |
|  | YPARRARYQWVRCKP | 16.5 | 25.0 | 77.0 | 15 μg peptide/ml heparinized plasma | heparin-binding under reducing conditions in words ([2]; ACE with β-ME): negligible heparin-binding |
|  | AAARRARAAAARAKA |  |  |  |  | decrease in heparin-binding affinity versus native mouse SG peptide ([2]; modified sequence versus YPARRARYQWVRCKP): 350 fold |
| strong | AKKARAAKKARAAKKARAAKKARAAKKARA [(AKKARA)5, XBBXBX tandem repeat peptide] |  |  |  |  |  |
|  | (ARKKAAKA)5 (ARKKAAKAARKKAAKAARKKAAKAARKKAAKAARKKAAKA; protein fragment) [XBBBXXBX tandem repeat peptide] | 83.0 | 81.5 | 94.5 | 21 μg peptide/ml heparinized plasma | Percent Reversal of anti-Factor Xa Activity, Orgaran (Orgaran; peptide 0.12 mg/ml in plasma): 75.0%; Percent Reversal of anti-Factor Xa Activity, Orgaran (Orgaran; peptide 0.4 mg/ml in plasma): 75.0%; Percent Reversal of anti-Factor Xa Activity, Lovenox (Lovenox; peptide 0.12 mg/ml in plasma): 68.5%; Percent Reversal of anti-Factor Xa Activity, Lovenox (Lovenox; peptide 0.4 mg/ml in plasma): 71.0%; Percent Reversal of anti-Factor Xa Activity, Heparin (unfractionated) (unfractionated heparin [1]; peptide 0.12 mg/ml in plasma): 64.5%; Percent Reversal of anti-Factor Xa Activity, Heparin (unfractionated) (unfractionated heparin [1]; peptide 0.4 mg/ml in plasma): 93.0% |
| negligible | YPARRARYQWVRAKP [murine serglycin, cysteine replaced with alanine] | 2.0 | 0 | 25.0 |  |  |
|  | (ARKKPAKA)3 (ARKKPAKAARKKPAKAARKKPAKA; protein fragment) [proline in each tandem repeat in place of an alanine] | 66.5 | 100 | 99.0 |  | Percent Reversal of anti-Factor Xa Activity, Orgaran (Orgaran; peptide 0.12 mg/ml in plasma): 45.0%; Percent Reversal of anti-Factor Xa Activity, Orgaran (Orgaran; peptide 0.4 mg/ml in plasma): 67.5%; Percent Reversal of anti-Factor Xa Activity, Lovenox (Lovenox; peptide 0.12 mg/ml in plasma): 62.0%; Percent Reversal of anti-Factor Xa Activity, Lovenox (Lovenox; peptide 0.4 mg/ml in plasma): 62.5%; Percent Reversal of anti-Factor Xa Activity, Heparin (unfractionated) (unfractionated heparin [1]; peptide 0.12 mg/ml in plasma): 90.0%; Percent Reversal of anti-Factor Xa Activity, Heparin (unfractionated) (unfractionated heparin [1]; peptide 0.4 mg/ml in plasma): 50.0% |
|  | (ARKKAAKA)4 (ARKKAAKAARKKAAKAARKKAAKAARKKAAKA; protein fragment) [XBBBXXBX tandem repeat peptide] | 70.5 | 73 | 87.5 |  | Kd (HUVEC PGs; 35S-labeled secreted/total EC PGs, read-out: Kd for total (secreted) HUVEC PGs): ~300 nM; Kd for HUVEC PGs devoid of CS GAGs via chondroitinase ABC (ABC) digestion (HUVEC PGs; chondroitinase ABC digested PGs): comparable affinity; Kd (HUVEC PGs; chondroitinase ABC digested PGs, read-out: Kd for HUVEC PGs devoid of CS GAGs via chondroitinase ABC (ABC) digestion): ~300 nM; Kd (HUVEC PGs; free GAG chains of total PGs, read-out: Kd for GAG chains liberated from core protein by borohydride reduction (BH)): ~1200 nM; reduction in affinity after borohydride release of GAG chains (HUVEC PGs; free GAG chains versus intact PGs): 3 fold and 3-4 fold; Kd for HUVEC PGs devoid of HS GAGs via heparatinase I digestion (H) (HUVEC PGs; heparatinase I digested PGs): comparable affinity; Kd (HUVEC PGs; heparatinase I digested PGs, read-out: Kd for HUVEC PGs devoid of HS GAGs via heparatinase I digestion (H)): ~300 nM; Kd for HUVEC PGs devoid of HS GAGs via nitrous acid treatment (NA) (HUVEC PGs; nitrous acid degraded PGs): comparable affinity; Kd (HUVEC PGs; nitrous acid degraded PGs, read-out: Kd for HUVEC PGs devoid of HS GAGs via nitrous acid treatment (NA)): ~300 nM |

| Substance | heparin-binding affinity in words [2] | Percent Reversal of anti-Factor Xa Activity, Orgaran (Orgaran; peptide 0.6 mg/ml in plasma) [%] | Percent Reversal of anti-Factor Xa Activity, Lovenox (Lovenox; peptide 0.6 mg/ml in plasma) [%] | Percent Reversal of anti-Factor Xa Activity, Heparin (unfractionated) (unfractionated heparin [1]; peptide 0.6 mg/ml in plasma) [%] | μg peptide/ml heparinized plasma needed to normalize thrombin time (unfractionated heparin [3]) | other results |
| --- | --- | --- | --- | --- | --- | --- |
| ARKKAAKA | do not bind heparin with a measurable affinity |  |  |  |  |  |
| AKKARA | do not bind heparin with a measurable affinity |  |  |  |  |  |

Source: US6855801B1, “Peptides modulating activities of heparin other glycosaminoglycans or proteoglycans” (Thomas Jefferson University, priority 1999, dated 2005)
